In brackets after ≈: the same amount, converted by molar mass.
Experiments:
[1] = Kinetic solubility assay (HPLC external standard); type: physicochemical; details: PBS pH 7.4 with 2% DMSO, PBS pH 7.4, 2% DMSO, 37° C.
Description: This kinetic solubility assay assesses our compounds in pH 7.4 PBS, mimicking physiological conditions relevant to oral absorption and tumor targeting. Test solutions were prepared by mixing 10 μL of stock with 490 μL of PBS (pH 7.4, 2% DMSO), followed by shaking at 37° C. for 3 hours, centrifugation, and a 2× dilution with methanol. Solubility was quantified in μM using HPLC analysis on a C18 column at 35° C., with a 5-85% acetonitrile gradient and 20 μL injections, performed in duplicate.
The assay was conducted using a modified HPLC-based external standard method. For Solution Preparation, (1) Buffer: Phosphate-buffered saline (PBS) at pH 7.4; (2) Compound Stock Solutions: 10 mM concentration in DMSO; (3) Test Solutions: Mix 10 μL of the stock solution with 490 μL of PBS in a 2 mL EP tube (final 2% DMSO v/v), shake at 37° C. for 3 hours, centrifuge at 12,000 RPM for 5-10 minutes, take 100 μL of supernatant, add 100 μL methanol, mix well to use as the test solution. […] For Data Analysis, concentration calculations are based on peak area ratios, accounting for the 2× dilution factor.

mice = details: doses as low as 10 mg/kg; cited from earlier work
rats = details: doses as low as 10 mg/kg; cited from earlier work

Structure (SMILES) | solubility at 3 h [1] [µM] | acute toxicity (mice) | acute toxicity (rats)
NCC[C@@H](Oc1cc(Cl)cc2[nH]ncc12)c1ccccc1 [GT-6045] | 188 (≈ 56.9 µg/mL) |  | 
N=C(N)SCCc1ccc(CCSC(=N)N)cc1 [PBIT, S,S′-1,4-phenylene-bis(1,2-ethanediyl)bis-isothiourea] |  | acutely toxic | acutely toxic
CNCC[C@@H](Oc1cc(Cl)cc2[nH]ncc12)c1ccccc1 [GT-6059, (R)-3-((6-chloro-1H-indazol-4-yl)oxy)—N-methyl-3-phenylpropan-1-amine] | 169 (≈ 53.5 µg/mL) |  | 

The next lines start with results.

solubility at 3 h [1] [µM] | Structure (SMILES) | acute toxicity (mice) | acute toxicity (rats)
177 (≈ 55.8 µg/mL) | CNCC[C@@H](Oc1cc(Cl)cc2[nH]cnc12)c1ccccc1 [GT-6058, (R)-3-((6-chloro-1H-benzo[d]imidazol-4-yl)oxy)—N-methyl-3-phenylpropan-1-amine] |  | 
176 (≈ 60.8 µg/mL) | OCCNCC[C@@H](Oc1cc(Cl)cc2[nH]cnc12)c1ccccc1 [GT-6060, (R)-2-((3-((6-chloro-1H-benzo[d]imidazol-4-yl)oxy)-3-phenylpropyl)amino) ethan-1-ol] |  | 
157 (≈ 47.3 µg/mL) | NCC[C@@H](Oc1cc(Cl)cc2[nH]cnc12)c1ccccc1 [GT-6041, (R)-3-((6-chloro-1H-benzo[d]imidazol-4-yl)oxy)-3-phenylpropan-1-amine] |  | 

Reference: patent US20250250237A1, “ALKYLAMINE OR HETEROALKYLAMINE DERIVATIVES AS INHIBITORS OF NITRIC OXIDE SYNTHASES (NOS), PHARMACEUTICAL PRODUCTS THEREOF, AND METHODS THEREOF” (Gacter Inc., priority 2022, published 2025)
